Results reported in PubChem BioAssay (NCI).
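Test compounds were applied to cells in 96-well plates for 48 hours at 5 doses. Abbreviation: GI50, concentration required for 50% inhibition of growth. The concentration for full growth arrest is given as TGI.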

Key:
Assay in all cases: growth of human tumour cells (NCI), 48 h
[1] = tested on: SR leukemia
[2] = tested on: A498 renal
[3] = tested on: HL-60(TB) leukemia
[4] = tested on: MOLT-4 leukemia
[5] = tested on: HT29 colon
[6] = tested on: HCT-116 colon
[7] = tested on: COLO 205 colon
[8] = tested on: OVCAR-5 ovarian
[9] = tested on: SN12C renal
[10] = tested on: K-562 leukemia

## C[N+]1(C)C/C(=C\c2ccc(O)cc2)C(=O)/C(=C/c2ccc(O)cc2)C1
[1]
  TGI: > 100 µM
[2]
  TGI: > 100 µM
[3]
  TGI: > 100 µM
[4]
  TGI: > 100 µM
[5]
  TGI: > 100 µM
[6]
  TGI: > 100 µM
[7]
  TGI: > 100 µM
[8]
  TGI: > 100 µM
[9]
  TGI: > 100 µM

## NC(=S)N/N=C1\CC(c2ccccc2)Nc2ccccc21 (configuration not stated)
[2]
  TGI: 68.2 µM
[3]
  TGI: 31.3 µM
[4]
  TGI: 73.2 µM
[5]
  TGI: 48.5 µM
[10]
  TGI: > 100 µM
[7]
  TGI: 73.3 µM
[9]
  TGI: > 100 µM

## COc1ccc(OC)c([N+](=O)[O-])c1-c1nc2sc(C)c(C)n2c1/C=N/N=C(N)N
[1]
  TGI: > 100 µM
[2]
  TGI: > 100 µM
[3]
  TGI: 64.9 µM
[4]
  TGI: 40.4 µM
[5]
  TGI: > 100 µM
[10]
  TGI: > 100 µM
[6]
  TGI: > 100 µM
[7]
  TGI: > 100 µM
[8]
  TGI: > 100 µM
[9]
  TGI: > 100 µM

## Nc1ccc(S(=O)(=O)NCCS(=O)(=O)O)cc1
[1]
  TGI: > 100 µM
[2]
  TGI: > 100 µM
[3]
  TGI: > 100 µM
[4]
  TGI: > 100 µM
[5]
  TGI: > 100 µM
[10]
  TGI: > 100 µM
[6]
  TGI: > 100 µM
[8]
  TGI: > 100 µM
[9]
  TGI: > 100 µM

## CC(=O)C(N=NC1CCC(S(=O)(=O)NB2N=CS2)CC1)C(=O)Nc1ccccc1C (configuration not stated)
[1]
  TGI: > 100 µM
[2]
  TGI: 33.6 µM
[3]
  TGI: > 100 µM
[4]
  TGI: > 100 µM
[5]
  TGI: 29.9 µM
[10]
  TGI: > 100 µM
[6]
  TGI: 26.3 µM
[7]
  TGI: 37.2 µM
[8]
  TGI: 39.3 µM
[9]
  TGI: 34.7 µM

## CC(=O)c1c(C)cc2cccc(OC3OC(CO)C(O)C(O)C3O)c2c1O (configuration not stated) (tested in a mixture with another compound)
[1]
  TGI: > 100 µM
[2]
  TGI: > 100 µM
[3]
  TGI: > 100 µM
[4]
  TGI: > 100 µM
[5]
  TGI: > 100 µM
[10]
  TGI: > 100 µM
[6]
  TGI: > 100 µM
[7]
  TGI: > 100 µM
[8]
  TGI: > 100 µM
[9]
  TGI: > 100 µM

## COc1cc(O)c2c(=O)c(OC)c(-c3ccc(OC)c(OC)c3)oc2c1.[Zn+2]
[1]
  GI50: > 100 µM
  TGI: > 100 µM
[3]
  TGI: > 100 µM
[4]
  GI50: > 100 µM
  TGI: > 100 µM
[5]
  GI50: 41.8 µM
  TGI: > 100 µM
[10]
  GI50: 41.6 µM
  TGI: > 100 µM
[6]
  GI50: 22.6 µM
  TGI: > 100 µM
[7]
  TGI: > 100 µM
[8]
  GI50: > 100 µM
  TGI: > 100 µM
[9]
  TGI: > 100 µM

## C=C(C[C@@H](O)[C@H](C)NC(=O)OCc1ccccc1)C(=O)OC(C)(C)C
[1]
  TGI: > 100 µM
[2]
  TGI: > 100 µM
[3]
  TGI: > 100 µM
[4]
  TGI: > 100 µM
[5]
  TGI: > 100 µM
[10]
  TGI: > 100 µM
[6]
  TGI: > 100 µM
[7]
  TGI: > 100 µM
[8]
  TGI: > 100 µM
[9]
  TGI: > 100 µM

## CCCCCCCCc1ccc(CCC(N)(CO)CO)cc1
[1]
  GI50: 1.39 µM
  TGI: 4.28 µM
[2]
  GI50: 3.34 µM
  TGI: 22.6 µM
[3]
  GI50: 1.32 µM
  TGI: 3.03 µM
[4]
  GI50: 1.64 µM
  TGI: 3.44 µM
[5]
  GI50: 1.76 µM
  TGI: 3.31 µM
[10]
  GI50: 1.82 µM
  TGI: 4.33 µM
[7]
  GI50: 1.58 µM
  TGI: 2.92 µM
[8]
  GI50: 1.64 µM
  TGI: 3.08 µM
[9]
  GI50: 3.5 µM
  TGI: 13.9 µM

## C[N+]1(c2ccccc2)C=C(c2ccccc2)SC1=S (configuration not stated)
[1]
  TGI: > 100 µM
[2]
  TGI: 46.7 µM
[3]
  TGI: > 100 µM
[5]
  TGI: > 100 µM
[10]
  TGI: > 100 µM
[6]
  TGI: > 100 µM
[7]
  TGI: > 100 µM
[8]
  TGI: > 100 µM
[9]
  TGI: > 100 µM

## O=S(=O)([O-])[O-].[Fe+2].[OH2+]c1c(Cl)cc(Cl)cc1/C=N/Nc1ccccn1
[1]
  TGI: 4.03 µM
[2]
  TGI: 4.5 µM
[3]
  TGI: 2.92 µM
[4]
  TGI: 2.94 µM
[5]
  TGI: 3.6 µM
[10]
  TGI: 3.26 µM
[6]
  TGI: 2.63 µM
[7]
  TGI: 3.47 µM
[8]
  TGI: 5.97 µM
[9]
  TGI: 2.82 µM

## CC(=O)Oc1cc(/C=C/c2ccc(O)cc2)cc(OC(C)=O)c1
[1]
  TGI: 48.7 µM
[2]
  TGI: 85.5 µM
[3]
  TGI: > 100 µM
[4]
  TGI: 63.2 µM
[5]
  TGI: 93.1 µM
[10]
  TGI: > 100 µM
[6]
  TGI: > 100 µM
[7]
  TGI: > 100 µM
[8]
  TGI: > 100 µM
[9]
  TGI: 68.5 µM

## Cc1ncc(COP(=O)(O)O)c(C)c1O
[1]
  TGI: > 100 µM
[2]
  TGI: > 100 µM
[3]
  TGI: > 100 µM
[4]
  TGI: > 100 µM
[5]
  TGI: > 100 µM
[10]
  TGI: > 100 µM
[6]
  TGI: > 100 µM
[8]
  TGI: > 100 µM
[9]
  TGI: > 100 µM

## Cc1cccc(/C=C2/C(=O)Nc3ccccc32)n1
[1]
  GI50: 2.11 µM
  TGI: 7.3 µM
[2]
  TGI: 46.9 µM
[3]
  TGI: 39.8 µM
[4]
  TGI: 44.5 µM
[5]
  TGI: > 100 µM
[10]
  TGI: 40.4 µM
[6]
  TGI: 26.2 µM
[7]
  TGI: > 57 µM
[8]
  TGI: 27 µM
[9]
  TGI: 37.9 µM
